Paper PMC8998675 (Molecular Pharmacology, 2021)

What was measured:
β2AR [1] = target: T1, β2AR (Homo sapiens, UniProt P07550); experiment: 125I-CYP competition radioligand binding at β2AR in HDL particles (nanodiscs)
β2AR [2] = target: T1, β2AR; experiment: 35S-GTPγS binding to heterotrimeric Gs (SPA), β2AR in HDL; conditions: epinephrine (10 µM) stimulation; cmpd-6 or A9 20 µM, Nb6B9 1 µM, ICI-118551 10 µM
Description: After incubations, the β2AR-Gs complexes were captured on YSi beads.

T1 sequence (P07550 whole entry): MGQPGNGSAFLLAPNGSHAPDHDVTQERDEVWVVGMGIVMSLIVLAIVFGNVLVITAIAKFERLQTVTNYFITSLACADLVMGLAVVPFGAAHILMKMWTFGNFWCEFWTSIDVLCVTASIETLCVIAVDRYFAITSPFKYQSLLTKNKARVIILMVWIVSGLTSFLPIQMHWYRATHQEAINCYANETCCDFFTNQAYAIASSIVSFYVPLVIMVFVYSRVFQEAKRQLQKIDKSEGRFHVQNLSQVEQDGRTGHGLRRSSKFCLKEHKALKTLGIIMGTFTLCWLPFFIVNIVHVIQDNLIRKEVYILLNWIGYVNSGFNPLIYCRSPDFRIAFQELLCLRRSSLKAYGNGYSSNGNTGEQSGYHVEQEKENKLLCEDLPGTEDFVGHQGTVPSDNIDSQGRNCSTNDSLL

Kd (β2AR [1]; LogKT, dissociation constant of PAM, carvedilol-bound β2AR): 2950 nM
PAM activity with agonists including epinephrine (affinity shift) (β2AR [1]; analog 20 µM, Fig. 5A(i), 5C): absolutely no PAM activity
Kd (β2AR [1]; binding affinity of modulator for the receptor in the presence of carvedilol, from shifts of carvedilol LogIC50 versus modulator dose): ~2900 nM
SMILES: CC(C)N(C)S(=O)(=O)c1ccc(Sc2ccc(C(N)=O)cc2)c(C(=O)N[C@@H](CC(N)=O)Cc2ccc(C(C)(C)C)cc2)c1 [A9]
cooperativity with carvedilol (affinity shift) (β2AR [1]; analog 20 µM, Fig. 5A(ii)): retains its positive cooperativity with carvedilol
35S-GTPγS binding to Gs / activation of Gs (β2AR [2]): markedly blocks the agonist-stimulated activation of Gs
